Test results reported in the supplement of paper PMC10307832.

Experiments:
Assay in all cases: relative viability (nuclei count vs DMSO), 5 days (fraction); higher = more cells survive
[1] = compound: CN(c1ncccc1CNc1nc(Nc2ccc3c(c2)CC(=O)N3)ncc1C(F)(F)F)S(C)(=O)=O + CS(=O)(=O)CCNCc1ccc(-c2ccc3ncnc(Nc4ccc(OCc5cccc(F)c5)c(Cl)c4)c3c2)o1 [Lapatinib] (partner 2 µM)
In short: (§1)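 Values are medians from duplicate plates. Each reflects relative viability, defined as the nuclei count of treated wells over that of vehicle wells. Lung cancer cell lines in 1536-well plates were pin-tool dosed one day after seeding with one drug alone or with a fixed anchor-drug dose plus five library-drug doses (not always all listed) in √10 steps, then fixed, stained and imaged at 4× after 5 days.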

[2] = compound: CN(c1ncccc1CNc1nc(Nc2ccc3c(c2)CC(=O)N3)ncc1C(F)(F)F)S(C)(=O)=O + C[C@@H](Oc1cc(-c2cnn(C3CCNCC3)c2)cnc1N)c1c(Cl)ccc(F)c1Cl [Crizotinib] (partner 1 µM)
In short: as §1

[3] = compound: CN(c1ncccc1CNc1nc(Nc2ccc3c(c2)CC(=O)N3)ncc1C(F)(F)F)S(C)(=O)=O + Cc1cc(Nc2cc(N3CCN(C)CC3)nc(Sc3ccc(NC(=O)C4CC4)cc3)n2)n[nH]1 [Tozasertib] (partner 0.1 µM)
In short: as §1

[4] = compound: CN(c1ncccc1CNc1nc(Nc2ccc3c(c2)CC(=O)N3)ncc1C(F)(F)F)S(C)(=O)=O + Nc1ncn([C@H]2C[C@H](O)[C@@H](CO)O2)c(=O)n1 [Decitabine] (partner 2 µM)
In short: as §1

Cell Line	relative viability ([1]; first compound 0.01 µM)	relative viability ([1]; first compound 0.03162 µM)	relative viability ([1]; first compound 0.1 µM)	relative viability ([1]; first compound 0.3162 µM)	relative viability ([1]; first compound 1 µM)	relative viability ([2]; first compound 0.01 µM)	relative viability ([2]; first compound 0.03162 µM)	relative viability ([2]; first compound 0.1 µM)	relative viability ([2]; first compound 0.3162 µM)	relative viability ([2]; first compound 1 µM)	relative viability ([3]; first compound 0.01 µM)	relative viability ([3]; first compound 0.03162 µM)	relative viability ([3]; first compound 0.1 µM)	relative viability ([3]; first compound 0.3162 µM)	relative viability ([3]; first compound 1 µM)	relative viability ([4]; first compound 0.01 µM)	relative viability ([4]; first compound 0.03162 µM)	relative viability ([4]; first compound 0.1 µM)	relative viability ([4]; first compound 0.3162 µM)	relative viability ([4]; first compound 1 µM)
HOP-62	1.06	1.1	1.02	1.09	0.903	0.926	1.04	0.962	0.809	1.04	0.408	0.42	0.391	0.318	0.262	0.208	0.212	0.256	0.211	0.245
LC-2-ad	1.12	0.958	1	0.864	0.756	0.491	0.465	0.514	0.435	0.469	0.417	0.433	0.546	0.426	0.442	0.789	0.833	0.828	0.852	0.863
LCLC-97TM1	–	0.658	0.841	0.752	0.516	–	0.434	0.416	0.224	0.181	0.281	0.194	0.256	0.218	0.18	0.228	0.212	0.2	0.238	0.215
LK-2	1.16	1.21	1.02	0.984	1	0.248	0.215	0.254	0.21	0.192	0.201	0.163	0.174	0.169	0.182	0.287	0.294	0.31	0.308	0.292
LOU-NH91	0.777	0.714	0.73	0.743	0.741	0.78	0.751	0.727	0.692	0.763	0.641	0.674	0.647	0.645	0.576	0.863	0.832	0.812	0.844	0.839
LU99A	0.971	1.19	1.01	1.17	1.08	0.594	0.584	0.584	0.758	0.633	0.319	0.301	0.297	0.258	0.246	0.959	0.996	0.907	0.874	0.913
LXF-289	0.949	0.883	0.9	0.925	0.89	0.851	0.875	0.824	0.788	0.773	0.176	0.178	0.242	0.18	0.17	0.374	0.427	0.419	0.412	0.447
NCI-H23	1.26	1.25	1.11	1.21	0.987	0.444	0.483	0.456	0.59	0.457	0.494	0.356	0.407	0.295	0.351	0.308	0.345	0.319	0.332	0.292
NCI-H322M	0.585	0.675	–	0.596	0.653	0.902	0.948	–	0.953	0.892	0.505	0.504	0.491	0.504	0.472	0.697	0.802	0.775	0.681	0.714
NCI-H358	0.449	0.414	0.42	0.431	0.397	0.608	0.449	0.515	0.449	0.303	0.0908	0.102	0.0923	0.103	0.0817	0.195	0.221	0.251	0.221	0.183
NCI-H460	1.11	1.65	0.963	0.964	1.02	1.1	1.15	0.994	0.891	0.712	0.499	0.464	0.491	0.137	0.396	0.477	0.702	0.537	0.493	0.549
NCI-H520	0.917	1.02	0.845	0.838	1.04	0.874	0.795	0.78	0.782	0.601	0.485	0.474	0.467	0.546	0.429	0.549	0.655	0.484	0.49	0.549
NCI-H596	1.05	1.16	0.929	0.979	1.06	0.988	0.928	0.894	0.986	0.999	0.886	0.938	0.899	0.813	0.632	1.15	1.01	1.11	1.03	1.13
NCI-H647	1.19	1.3	1.11	1.04	1.03	1.01	1.43	1.05	1	1.06	0.315	0.224	0.498	0.353	0.248	0.425	0.51	0.498	0.544	0.502
NCI-H650	0.977	0.971	0.813	0.703	0.992	0.68	0.727	0.675	0.538	0.675	0.713	0.712	0.637	0.622	0.608	0.316	0.351	0.342	0.285	0.307
NCI-H661	0.481	0.496	0.652	0.534	0.637	0.973	0.955	1.02	0.904	0.915	0.294	0.334	0.361	0.372	0.353	0.551	0.649	0.589	0.56	0.568
